Measurements from paper PMC9405102, “Targeted Modification and Structure-Activity Study of GL-29, an Analogue of the Antimicrobial Peptide Palustrin-2ISb” (Antibiotics, 2022).
Read-outs that look alike come from different tables or passages of the source. Where no end group is shown, it is not given here.

Key:
[1] = tested on: C. albicans (ATCC CRM 10231); format: cell-based, Candida albicans
Protocol: (§1) The antimicrobial activity of the peptides was determined through the minimum inhibitory concentrations (MICs) and the minimum bactericidal concentration (MBCs) using the broth-dilution method in a 96-well plate, as described in the previous study. Six bacteria, including the Gram-positive bacteria, S. aureus (ATCC CRM 6538), MRSA (ATCC CRM 12493) and E. faecalis (NCTC 12697), the Gram-negative bacteria, E. coli (ATCC CRM 8739), K. pneumoniae (ATCC CRM 43816) and P. aeruginosa (ATCC CRM 9027), the yeast, C. albicans (ATCC CRM 10231) and clinical isolates, S. aureus (B042 V2E1 A), MRSA (B038 V1S1 A), E. coli (ATCC BAA-2340) and K. pneumoniae (ATCC BAA-1705) were used in these assays to evaluate the antimicrobial potency of the two peptides by determining their MICs and MBCs. All bacteria were cultured in MHB and the yeast, C. albicans was cultured in YPD broth overnight. Then, the microorganisms were sub-cultured and diluted to the final concentration of 2 × 10^5 CFU/mL to 5 × 10^5 CFU/mL. The Norfloxacin and amphotericin B were used as positive controls for the bacteria and yeast, respectively. The assay was repeated three times, with five replicates at each time.

MRSA (B038 V1S1 A) = format: cell-based, methicillin-resistant S. aureus
Protocol: as §1

MRSA (ATCC CRM 12493) [2] = format: cell-based, methicillin-resistant S. aureus
Protocol: as §1

E. faecalis (NCTC 12697) [3] = format: cell-based, Enterococcus faecalis
Protocol: as §1

[4] = tested on: S. aureus (ATCC CRM 6538); format: cell-based, Staphylococcus aureus
Protocol: as §1

S. aureus (B042 V2E1 A) = format: cell-based, Staphylococcus aureus
Protocol: as §1

[5] = tested on: P. aeruginosa (ATCC CRM 9027); format: cell-based, Pseudomonas aeruginosa
Protocol: as §1

E. faecalis (NCTC 12697) [6] = format: cell-based, Enterococcus faecalis; remark: listed apart in the source
Protocol: (§2) The MBIC and MBEC assays were performed to measure the inhibition and eradication of bacterial biofilm in the presence of different concentrations of peptides. Gram-positive bacteria were inoculated in Luria–Bertani (LB) broth at 37 °C overnight whereas Gram-negative bacteria were inoculated in tryptic soy broth (TSB), and then sub-cultured until reaching the logarithmic growth phase by measuring the OD values at a wavelength of 550nm. For the MBIC assay, 99 µL of diluted bacterial suspension (5 × 10^5 CFU/mL) was mixed with 1 µL of prepared peptide solutions in the wells of a round-bottomed 96-well plate, achieving the final concentrations from 512 to 1 µM, and then incubated at 37 °C for 24 h in a shaking incubator at 200 revolutions per minute (rpm). After this, the plate was washed twice by PBS and fixed with methanol for 30 min. For MBEC assay, 100 µL of diluted bacterial suspension (5 × 10^5 CFU/mL) was seeded into a round-bottomed 96-well plate and incubated at 37 °C for 24 h in a shaking incubator at 200 rpm to obtain mature biofilm. After this, plates were washed twice by PBS and incubated with different concentrations of peptide solution from 512 to 1 µM at 37 °C for 24 h. Afterwards, the plate was washed twice with PBS and fixed with methanol for 30 min. Then, both MBIC and MBEC plates were stained by 130 μL of 0.1% (g/v) crystal violet solutions for 30 min and washed with PBS until no apparent staining was observed. Evaporating crystal violet stains were dissolved by 33% (v/v) acetic acid, and the absorbance values were measured by a Synergy HT Microplate Reader (BioTek, Minneapolis, MN, USA) set to 595 nm. The minimum concentration that inhibited the formation of biofilm was defined when compared to the negative control group, as the MBIC. The minimum concentration that eradicated the biofilm was defined, when compared to the negative control group, as the MBEC. The biofilm assays were performed in triplicate.

[7] = tested on: P. aeruginosa (ATCC CRM 9027); format: cell-based, Pseudomonas aeruginosa; remark: listed apart in the source
Protocol: as §2

[8] = tested on: K. pneumoniae (ATCC BAA-1705); format: cell-based, Klebsiella pneumoniae
Protocol: as §1

[9] = tested on: K. pneumoniae (ATCC CRM 43816); format: cell-based, Klebsiella pneumoniae
Protocol: as §1

E. coli (ATCC BAA-2340) = format: cell-based, Escherichia coli
Protocol: as §1

E. coli (ATCC CRM 8739) [10] = format: cell-based, Escherichia coli
Protocol: as §1

MRSA (ATCC CRM 12493) [11] = format: cell-based, methicillin-resistant S. aureus; remark: listed apart in the source
Protocol: as §2

E. coli (ATCC CRM 8739) [12] = format: cell-based, Escherichia coli; remark: listed apart in the source
Protocol: as §2

[13] = tested on: K. pneumoniae (ATCC CRM 43816); format: cell-based, Klebsiella pneumoniae; remark: listed apart in the source
Protocol: as §2

[14] = clinical isolated strain MRSA (B038 V1S1 A)
[15] = clinical isolated strain S. aureus (B042 V2E1 A)
[16] = KPC-producing resistant strain K. pneumoniae (ATCC BAA-1705)
[17] = KPC-producing resistant strain E. coli (ATCC BAA-2340)

With GLWNSIKIAGKKLFVNVLDKIR-NH2 [GL-22] the MBC ([1]; ATCC CRM 10231) was 256 µM, the MIC ([1]; ATCC CRM 10231) was 128 µM and the MBC (MRSA (B038 V1S1 A); B038 V1S1 A) was 4 µM. It also gave an MIC (MRSA (B038 V1S1 A); B038 V1S1 A) of 4 µM, an MBC (MRSA (ATCC CRM 12493) [2]; ATCC CRM 12493) of 8 µM and an MIC (MRSA (ATCC CRM 12493) [2]; ATCC CRM 12493) of 8 µM. For the same substance, the MBC (E. faecalis (NCTC 12697) [3]; NCTC 12697) was 32 µM, the MIC (E. faecalis (NCTC 12697) [3]; NCTC 12697) was 32 µM and the MBC ([4]; ATCC CRM 6538) was 4 µM. It also gave an MIC ([4]; ATCC CRM 6538) of 4 µM, an MBC (S. aureus (B042 V2E1 A); B042 V2E1 A) of 64 µM and an MIC (S. aureus (B042 V2E1 A); B042 V2E1 A) of 32 µM. The MBC ([5]; ATCC CRM 9027) was 32 µM, the MIC ([5]; ATCC CRM 9027) was 32 µM and the MBEC (E. faecalis (NCTC 12697) [6]; NCTC 12697, 24 h) was > 512 µM. For the same substance, the MBIC (E. faecalis (NCTC 12697) [6]; NCTC 12697, 24 h) was 32 µM, the MBEC ([7]; ATCC CRM 9027, 24 h) was > 512 µM and the MBIC ([7]; ATCC CRM 9027, 24 h) was 128 µM. For the same substance, the MBC ([8]; ATCC BAA-1705) was 4 µM, the MIC ([8]; ATCC BAA-1705) was 4 µM and the MBC ([9]; ATCC CRM 43816) was 4 µM. The MIC ([9]; ATCC CRM 43816) was 4 µM, the MBC (E. coli (ATCC BAA-2340); ATCC BAA-2340) was 4 µM and the MIC (E. coli (ATCC BAA-2340); ATCC BAA-2340) was 2 µM. For the same substance, the MBC (E. coli (ATCC CRM 8739) [10]; ATCC CRM 8739) was 4 µM, the MIC (E. coli (ATCC CRM 8739) [10]; ATCC CRM 8739) was 4 µM and the MBEC (MRSA (ATCC CRM 12493) [11]; ATCC CRM 12493, 24 h) was > 512 µM. The MBIC (MRSA (ATCC CRM 12493) [11]; ATCC CRM 12493, 24 h) was 8 µM, the MBEC (E. coli (ATCC CRM 8739) [12]; ATCC CRM 8739, 24 h) was > 512 µM and the MBIC (E. coli (ATCC CRM 8739) [12]; ATCC CRM 8739, 24 h) was 16 µM. The MBEC ([13]; ATCC CRM 43816, 24 h) was > 512 µM and the MBIC ([13]; ATCC CRM 43816, 24 h) was 16 µM.

With GLWNSIKIA-NH2 [GL-9, GLWNSIKIA-NH2] the MBC ([1]; C. albicans (ATCC CRM 10231)) was >512 µM, the MIC ([1]; C. albicans (ATCC CRM 10231)) was >512 µM and the MBC (MRSA (B038 V1S1 A); [14]) was >512 µM. For the same substance, the MIC (MRSA (B038 V1S1 A); [14]) was >512 µM, the MBC (MRSA (ATCC CRM 12493) [2]; MRSA (ATCC CRM 12493)) was >512 µM and the MIC (MRSA (ATCC CRM 12493) [2]; MRSA (ATCC CRM 12493)) was >512 µM. For the same substance, the MBC (E. faecalis (NCTC 12697) [3]; E. faecalis (NCTC 12697)) was >512 µM, the MIC (E. faecalis (NCTC 12697) [3]; E. faecalis (NCTC 12697)) was >512 µM and the MBC ([4]; S. aureus (ATCC CRM 6538)) was 512 µM. The MIC ([4]; S. aureus (ATCC CRM 6538)) was 512 µM, the MBC (S. aureus (B042 V2E1 A); [15]) was >512 µM and the MIC (S. aureus (B042 V2E1 A); [15]) was >512 µM. For the same substance, the MBC ([5]; P. aeruginosa (ATCC CRM 9027)) was >512 µM, the MIC ([5]; P. aeruginosa (ATCC CRM 9027)) was >512 µM and the MBEC (E. faecalis (NCTC 12697) [6]; biofilm eradication, E. faecalis (NCTC 12697)) was >512 µM. The MBIC (E. faecalis (NCTC 12697) [6]; biofilm formation, E. faecalis (NCTC 12697)) was >512 µM, the MBEC ([7]; biofilm eradication, P. aeruginosa (ATCC CRM 9027)) was >512 µM and the MBIC ([7]; biofilm formation, P. aeruginosa (ATCC CRM 9027)) was >512 µM. For the same substance, the MBC [8, 16] was >512 µM, the MIC [8, 16] was >512 µM and the MBC ([9]; K. pneumoniae (ATCC CRM 43816)) was >512 µM. The MIC ([9]; K. pneumoniae (ATCC CRM 43816)) was >512 µM, the MBC (E. coli (ATCC BAA-2340); [17]) was >512 µM and the MIC (E. coli (ATCC BAA-2340); [17]) was >512 µM. The MBC (E. coli (ATCC CRM 8739) [10]; E. coli (ATCC CRM 8739)) was > 512 µM, the MIC (E. coli (ATCC CRM 8739) [10]; E. coli (ATCC CRM 8739)) was 512 µM and the MBEC (MRSA (ATCC CRM 12493) [11]; biofilm eradication, MRSA (ATCC CRM 12493)) was >512 µM. The MBIC (MRSA (ATCC CRM 12493) [11]; biofilm formation, MRSA (ATCC CRM 12493)) was >512 µM, the MBEC (E. coli (ATCC CRM 8739) [12]; biofilm eradication, E. coli (ATCC CRM 8739)) was 512/>512 μM and the MBIC (E. coli (ATCC CRM 8739) [12]; biofilm formation, E. coli (ATCC CRM 8739)) was 512/>512 μM. For the same substance, the MBEC ([13]; biofilm eradication, K. pneumoniae (ATCC CRM 43816)) was >512 µM and the MBIC ([13]; biofilm formation, K. pneumoniae (ATCC CRM 43816)) was >512 µM.
